The values below come from ChEMBL document CHEMBL1128959, “Quinoline-substituted dihydroindoles as cysLT1 (LTD4 receptor) antagonists” (Bioorg Med Chem Lett, 1996).

Experiment [1] relates to Cavia porcellus. The experiment is described as follows: Inhibition of aerosol administered LTD4-induced airway obstruction after oral administration in guinea pig 2 hr after administration. In kind it is functional.
The target of experiment [2] is T1, Cysteinyl leukotriene receptor 1 (Cavia porcellus) (UniProt Q2NNR5).
T1 sequence (whole entry): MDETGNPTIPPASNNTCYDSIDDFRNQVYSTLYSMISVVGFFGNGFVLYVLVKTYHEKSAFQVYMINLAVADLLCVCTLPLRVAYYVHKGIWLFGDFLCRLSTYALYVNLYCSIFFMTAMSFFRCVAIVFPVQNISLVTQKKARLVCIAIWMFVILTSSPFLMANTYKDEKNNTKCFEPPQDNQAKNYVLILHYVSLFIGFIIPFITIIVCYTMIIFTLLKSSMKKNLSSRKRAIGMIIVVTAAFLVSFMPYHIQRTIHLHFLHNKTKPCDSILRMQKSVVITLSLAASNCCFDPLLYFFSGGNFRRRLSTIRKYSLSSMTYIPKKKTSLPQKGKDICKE
The experiment is described as follows: Compound was tested for its inhibitory activity against specific binding of [3H]LTD4 to guinea pig trachea. Type of experiment: tissue-based.

The target in experiment [3] is T1, Cysteinyl leukotriene receptor 1 (Cavia porcellus). The experiment is described as follows: Compound was tested for its inhibitory activity against specific binding of [3H]LTD4 to guinea pig ileum. In kind it is tissue-based.
Experiment [4] deals with Cavia porcellus. The experiment is described as follows: Inhibition of aerosol administered LTD4-induced airway obstruction after oral administration in guinea pig 6 hr after administration. In kind it is functional.
The target in experiment [5] is T2, Cysteinyl leukotriene receptor 1 (Cavia porcellus, UniProt Q2NNR5).
T2 sequence (Q2NNR5 whole entry): T1 sequence (whole entry)
The experiment can be described thus: Compound was tested for its inhibitory activity against specific binding of [3H]LTD4 to guinea pig lung membrane. Type of experiment: tissue-based.

Usually Inhibition stands for the relative decrease from the control value, in per cent. A high value points to a strong effect. For orientation: pKB means the negative decadic logarithm of the KB, by convention in mol/L. Low readings indicate a large KB, high ones a small KB. `Clc1ccc2ccc(COc3ccc(CN4CCc5cccc(CCc6nnn[nH]6)c54)cc3)nc2c1`: the Inhibition is 51% in the experiment on Cavia porcellus [1] and 81% in the experiment on Cavia porcellus [4]. Besides, the pKB came to 7.6 in experiment [2] and 8.5 in experiment [3].

Broadly, the Ki is a dissociation constant, usually derived from enzyme kinetics or from competition with a known ligand. For the molecule `Clc1ccc2ccc(/C=C/c3ccc(CN4CCc5cccc(CCc6nnn[nH]6)c54)cc3)nc2c1`, the pKB in experiment [3] amounted to 8.6. Also, the Ki in experiment [5] was 31.6 nM.

Consider `c1cc(CCc2nnn[nH]2)c2c(c1)CCN2Cc1ccc(OCc2ccc3ccccc3n2)cc1`, for which the pKB in experiment [2] stood at 7.9; in experiment [3], 8.3.

`Clc1ccc2ccc(/C=C/c3cccc(CN4CCc5cccc(OCc6nn[nH]n6)c54)c3)nc2c1` came in with a pKB in experiment [3] of 8.6. The molecule also showed an inhibitory constant (Ki) in experiment [5] of 5.01 nM.

In the case of `Clc1ccc2ccc(/C=C/c3cccc(CN4CCc5cccc(CCc6nnn[nH]6)c54)c3)nc2c1`, the Inhibition in the experiment on Cavia porcellus [1] is recorded as 91%; in the experiment with Cavia porcellus [4], 74%. Further, the pKB in experiment [2] is 7; in experiment [3], 8.6.

As to `Clc1ccc2ccc(COc3cccc(CN4CCc5cccc(CCc6nnn[nH]6)c54)c3)nc2c1`, the negative logarithm of the KB (pKB) in experiment [2] stood at 7.8; in experiment [3], 8.4.

Regarding `Clc1ccc2ccc(/C=C/c3cccc(Cn4ccc5cccc(CCc6nnn[nH]6)c54)c3)nc2c1`, the Inhibition in the experiment with Cavia porcellus [1] is listed as 69%; with Cavia porcellus [4], 21%.

In turn, `C(=C\c1ccc2ccccc2n1)/c1cccc(CN2CCc3cccc(CCc4nnn[nH]4)c32)c1` yielded a pKB in experiment [3] of 8.6.

For the molecule `Clc1ccc2ccc(COc3ccc(Cn4ccc5cccc(CCc6nnn[nH]6)c54)cc3)nc2c1`, the Inhibition with Cavia porcellus [1] was found to be 16%.
